Test results taken from patent US9493524B2, “Methods for treatment of stroke or cerebrovascular accidents using an ETB receptor agonist” (MIDWESTERN UNIVERSITY, priority 2007, dated 2016).
Numbered stars: 1 amine (or outer) side, 2 acyl side, 3 side chain; on linkers, the order of the positions; unused ones are H or OH. Peptide text beside a SMILES is read from it. Suc = O=C(CCC(=O)[*:2])[*:1]

Key:
Type in all cases: in vivo, Sprague-Dawley rats
[1] = tested on: urethane anesthetized rat; experiment: Cerebral blood perfusion by Laser Doppler Flowmetry; conditions: BQ788 1 μg/kg
Protocol: (§1) Male Sprague-Dawley rats weighing 323±4 grams (g) were anesthetized with urethane (ethyl carbamate, Sigma Aldrich, St. Louis, Mo.) dissolved in isotonic saline (0.9% NaCl, Hospira, Inc., Lake Forest, Ill.). The rats were administered a dose of 0.15 g per 100 g body weight via intraperitoneal (i.p.) injection.
Cerebral Perfusion: A burr hole was drilled into the rat skull about 2 millimeters (mm) to the left of midline. Cerebrovascular perfusion was measured via a fiber optic probe (PF407) applied to the surface of the rat brain. The probe was connected to a Periflux PF2b 4000 Laser Doppler Flowmetry unit (Perimed, Stockholm, Sweden).
(§2) The rats were randomly selected for various studies. Following surgery the rats were allowed to stabilize for 30 minutes and a 15 minutes baseline recording of all parameters (blood pressure, heart rate, cerebral blood flow, and renal blood flow) was obtained prior to the administration of the pretreatment followed by IRL-1620 (Suc-[Glu 9, Ala 11,15], American Peptide Co, Inc., Sunnyville, Calif.) or ET-1 (Ala 1,3,11,15, RBI Sigma, Natick, Mass.). BQ-788, a selective endothelin B antagonist, is the sodium salt of N-cis-2,6-dimethylpiperidinocarbonyl-L-gamma-methylleucyl-D-1-methoxycarbonyl triptophanyl-DNIe (see Proc. Natl. Acad. Sci. USA, 91, pp. 4892-4896 (1994)) BMS is BMS 182, 874, which is a selective endothelin A antagonist having a structure
(§3) Group 1: Animals (n=4) were pretreated with saline 15 minutes (min) prior to administration of IRL-1620 (5 μg/kg, i.v.).
(§4) Group 2: Animals (n=4) were pretreated with BMS (5 mg/kg, i.v.) 15 min prior to administration of IRL-1620 (5 μg/kg, i.v.).
(§5) Group 3: Animals (n=4) were pretreated with BMS (15 mg/kg, i.v.) 15 min prior to administration of IRL-1620 (5 μg/kg, i.v.).
(§6) Group 4: Animals (n=4) were pretreated with BQ788 (1 μg/kg, i.v.) 15 min prior to administration of IRL-1620 (5 μg/kg, i.v.).
(§7) Group 1: Animals (n=4) were pretreated with saline 15 min prior to administration of ET-1 (0.75 μg/kg, i.v.).
(§8) Group 2: Animals (n=4) were pretreated with BMS (5 mg/kg, i.v.) 15 min prior to administration of ET-1 (0.75 μg/kg, i.v.).
(§9) Group 3: Animals (n=4) were pretreated with BMS (15 mg/kg, i.v.) 15 min prior to administration of ET-1 (0.75 μg/kg, i.v.).
(§10) Group 4: Animals (n=4) were pretreated with BQ788 (1 μg/kg, i.v.) 15 min prior to administration of ET-1 (0.75 μg/kg, i.v.).
(§11) Blood pressure, heart rate, cerebral blood perfusion, and renal blood perfusion all were recorded for 2 hours following the final injection. Blood gases were analyzed prior to administration of any drugs, and at 60 and 120 min following administration of IRL-1620 or ET-1. At the end of each experiment, the animals were euthanized with an overdose of urethane i.v. In the figures, all data values are presented as mean±SEM. One-sample t-tests and one-way ANOVAs were used to test the differences within and between the groups. A P value of P<0.05 was considered significant.

[2] = tested on: urethane anesthetized rat; experiment: Renal blood perfusion by Laser Doppler Flowmetry; conditions: BMS 5 and 15 mg/kg, i.v., BQ788 1 μg/kg
Protocol: as §1
Renal Perfusion: The right kidney was dissected retroperitoneally. Renal perfusion was measured via a fiber optic probe (PF408) applied to the surface of the rat kidney. The probe was connected to a Periflux PF2b 4000 Laser Doppler Flowmetry unit (Perimed, Stockholm, Sweden).
as §2, §3, §4, §5, §6, §7, §8, §9, §10, §11

[3] = tested on: urethane anesthetized rat; experiment: Heart rate recording; conditions: IRL-1620 5 μg/kg, i.v.; for heart rate: 1 μg/kg BQ788 pretreatment, mean±SEM, in bpm (unit assumed)
Protocol: as §1
(§12) Blood Pressure and Heart Rate: The femoral vein and artery were cannulated. The arterial cannula was connected to a Gould P23 ID pressure transducer for recording the blood pressure on a Grass P7D polygraph through a 7PI preamplifier. The heart rate was recorded through a 7P4B Grass tachograph, triggered from blood pressure signals. Drugs were administered via the venous cannula.
as §2, §3, §4, §5
Group 4: Animals (n=4) were pretreated with BQ788 (1 μg/kg, i.v.) 15 min prior to administration of IRL-1620 (5 μg/kg, i.v.). […]
as §11

[4] = tested on: urethane anesthetized rat; experiment: Blood pressure / mean arterial pressure recording; conditions: BMS 5 and 15 mg/kg, i.v., BQ788 1 μg/kg
Protocol: as §1, §12, §2, §3, §4, §5, §6, §7, §8, §9, §10, §11

[5] = tested on: urethane anesthetized rat; experiment: Arterial blood gas analysis; conditions: IRL-1620 5 μg/kg, i.v., ET-1 0.75 μg/kg
Protocol: as §1
Blood Gas Analysis: Arterial blood gases were monitored to determine the effects on pH, pCO2, and pO2. Blood was drawn from the arteriole cannula and analyzed using a GEM Premier 3000 unit (Instrument Laboratory, Lexington, Mass.).
as §11

[6] = time 0 min (prior to any drugs)

In the case of CCCC[C@@H](NC(=O)[C@@H](Cc1cn(C(=O)OC)c2ccccc12)NC(=O)[C@H](CC(C)(C)C)NC(=O)N1[C@H](C)CCC[C@@H]1C)C(=O)O [BQ788, N-cis-2,6-dimethylpiperidinocarbonyl-L-gamma-methylleucyl-D-1-methoxycarbonyl triptophanyl-DNIe], the “effect of pretreatment on the effect of ET-1 on cerebral blood flow” value ([1]; BMS 5 and 15 mg/kg, i.v., ET-1 0.75 μg/kg, FIG. 7) is reported as “no significant change”, the “effect of pretreatment on the effect of IRL-1620 on cerebral blood flow” value ([1]; i.v. 15 min prior to IRL-1620 5 μg/kg, FIG. 6) is reported as “effectively blocked” and the “effect of pretreatment on the effect of ET-1 on renal blood flow” value ([2]; ET-1 0.75 μg/kg, FIG. 10) is reported as “No pretreatment significantly altered”. For the same compound, the “effect of pretreatment on the effect of IRL-1620 on renal blood flow” value ([2]; IRL-1620 5 μg/kg, FIG. 9) was “effectively blocked”, the heart rate ([3]; time 0 min) was 344 ± 5 and the heart rate ([3]; time 1 min) was 350 ± 6. It also gave a heart rate ([3]; time 5 min) of 345 ± 4, a heart rate ([3]; time 10 min) of 345 ± 4 and a heart rate ([3]; time 15 min) of 347 ± 3. For the same compound, the heart rate ([3]; time 30 min) was 347 ± 4, the heart rate ([3]; time 45 min) was 350 ± 6 and the heart rate ([3]; time 60 min) was 351 ± 9. The heart rate ([3]; time 90 min) was 351 ± 13, the heart rate ([3]; time 120 min) was 353 ± 13 and the “effect of pretreatment on the effect of IRL-1620 on heart rate (Table 1)” value ([3]; BMS 5 and 15 mg/kg, BQ788) was “effectively blocked”. For the same compound, the “effect of pretreatment on the effect of ET-1 on mean arterial pressure” value ([4]; ET-1 0.75 μg/kg, FIG. 13) was “failed to alter” and the “effect of pretreatment on the effect of IRL-1620 on mean arterial pressure” value ([4]; IRL-1620 5 μg/kg, FIG. 12) was “effectively blocked”.

With CC[C@H](C)[C@H](NC(=O)[C@H](CC(=O)O)NC(=O)[C@H](CC(C)C)NC(=O)[C@H](Cc1c[nH]cn1)NC(=O)[C@H](C)NC(=O)[C@H](Cc1ccccc1)NC(=O)[C@H](Cc1ccc(O)cc1)NC(=O)[C@@H](NC(=O)[C@H](C)NC(=O)[C@H](CCC(=O)O)NC(=O)[C@H](CCC(=O)O)NC(=O)[C@H](CC(=O)O)NC(=O)CCC(=O)O)C(C)C)C(=O)N[C@H](C(=O)N[C@@H](Cc1c[nH]c2ccccc12)C(=O)O)[C@@H](C)CC [IRL-1620, N-Succinyl-[Glu^9, Ala^11,15]-Endothelin 1 fragment 8-21] (Suc-DEEAVYFAHLDIIW-OH) the “effect on arterial blood gases (text to Table 2)” value [5] was “Neither IRL-1620 nor ET-1 significantly affected blood gases”, the “arterial blood pCO2” value [5, 6] was 42 ± 2 and the “arterial blood pH” value [5, 6] was 7.32 ± 0.01. For the same compound, the “arterial blood pO2” value [5, 6] was 103 ± 3, the “arterial blood pCO2” value ([5]; time 60 min) was 46 ± 6 and the “arterial blood pH” value ([5]; time 60 min) was 7.27 ± 0.01. For the same compound, the “arterial blood pO2” value ([5]; time 60 min) was 99 ± 9, the “arterial blood pCO2” value ([5]; time 120 min) was 32 ± 3 and the “arterial blood pH” value ([5]; time 120 min) was 7.29 ± 0.01. For the same compound, the “arterial blood pO2” value ([5]; time 120 min) was 113 ± 6.
